The values that follow come from ChEMBL document CHEMBL4622837, “Finding the mechanism of esterase D activation by a small molecule” (Bioorg Med Chem Lett, 2020).

Active and inactive are the calls of the source. The calls are words filed in the database; no cut-off is given here.

In test [1] the target is T1, S-formylglutathione hydrolase (Homo sapiens) (UniProt P10768).
T1 sequence (whole entry): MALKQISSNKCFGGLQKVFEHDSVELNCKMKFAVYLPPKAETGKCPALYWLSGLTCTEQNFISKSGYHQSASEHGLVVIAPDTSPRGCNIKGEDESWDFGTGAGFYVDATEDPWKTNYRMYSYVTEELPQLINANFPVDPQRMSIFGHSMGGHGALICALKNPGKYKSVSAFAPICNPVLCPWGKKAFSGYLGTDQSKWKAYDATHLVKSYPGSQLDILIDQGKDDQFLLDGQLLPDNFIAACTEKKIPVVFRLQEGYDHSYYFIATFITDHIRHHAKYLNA
As to the kind of experiment: Activation of human ESD expressed in HEK293T cells transfected with pEGFP-N1 at 0.1 uM after 24 hrs. The class given is cell-based. As to conditions: HEK-293T.

Test [2] has as its target T1, S-formylglutathione hydrolase (Homo sapiens). As to the kind of experiment: Activation of ESD in human L02 cells at 0.1 to 1 uM after 24 hrs. The class given is cell-based.
Test [3] has the same target. As to the kind of experiment: Activation of human ESD expressed in HEK293T cells transfected with pEGFP-N1 assessed as protein redistribution in cytoplasm by fluorescence microscopic analysis. The class given is cell-based. To be noted: HEK-293T.
Test [4] has the same target. As to the kind of experiment: Activation of human ESD expressed in HEK293T cells transfected with pEGFP-N1 assessed as compound co-localization with protein by fluorescence microscopic analysis. The class given is cell-based. As to conditions: HEK-293T.
Test [5] has the same target. As to the kind of experiment: Inhibition of IgG binding to ESD in human L02 cells by immuno precipitation assay. The class given is cell-based.
For test [6] the target is unchanged. As to the kind of experiment: Binding affinity to human ESD expressed in HEK293T cells assessed as association rate constant. The class given is cell-based. As to conditions: HEK-293T.
The target in test [7] is T2, S-formylglutathione hydrolase (Homo sapiens, UniProt P10768).
T2 sequence (P10768 whole entry): T1 sequence (whole entry)
As to the kind of experiment: Binding affinity to human ESD expressed in HEK293T cells assessed as dissociation rate constant. The class given is cell-based. As to conditions: hek-293t.

The target of test [8] is T2, S-formylglutathione hydrolase. As to the kind of experiment: Binding affinity to human ESD expressed in HEK293T cells assessed as dissociation constant. The class given is cell-based, HEK-293T.
For test [9], the target named is T1, S-formylglutathione hydrolase (Homo sapiens). As to the kind of experiment: Activation of wild type human ESD expressed in HEK293T cells assessed as increase in protein mono ubiquitination at 0.1 to 1 uM incubated for 12 hrs by Western blot analysis. The class given is cell-based. As to conditions: HEK-293T.
Test [10] concerns HEK-293T. As to the kind of experiment: Activation of ESD K180A mutant (unknown origin) expressed in HEK293T cells transfected with p-EGFP assessed as increase in protein mono ubiquitination at 0.1 to 1 uM measured up to 36 hrs by Western blot analysis. To be noted: Homo sapiens. The class given is cell-based.
Test [11] relates to HEK-293T. As to the kind of experiment: Activation of ESD K213A mutant (unknown origin) expressed in HEK293T cells transfected with p-EGFP assessed as increase in protein mono ubiquitination at 0.1 to 1 uM measured up to 36 hrs by Western blot analysis. As to conditions: Homo sapiens. The class given is cell-based.
The target in test [12] is T1, S-formylglutathione hydrolase (Homo sapiens). As to the kind of experiment: Activation of human ESD expressed in HEK293T cells transfected with pEGFP-N1 assessed as induction of protein mono ubiquitination at 5 uM after 3 hrs by immunoblotting analysis. The class given is cell-based. To be noted: HEK-293T.
Test [13] has the same target. As to the kind of experiment: Activation of human ESD expressed in HEK293T cells transfected with pEGFP-N1 assessed as induction of protein mono ubiquitination at 1 to 5 uM after 6 hrs by immunoblotting analysis. The class given is cell-based. As to conditions: HEK-293T.
For test [14] the target is unchanged. As to the kind of experiment: Activation of human ESD expressed in HEK293T cells transfected with pEGFP-N1 assessed as increase in protein mono ubiquitination at 0.1 to 5 uM after 12 to 24 hrs by immunoblotting analysis. The class given is cell-based. To be noted: HEK-293T.
For test [15], the system named is HEK-293T. As to the kind of experiment: Activation of ESD K180A mutant (unknown origin) expressed in HEK293T cells transfected with p-EGFP assessed as protein mono ubiquitination at 0.1 to 1 uM measured up to 24 hrs by Western blot analysis. The class given is cell-based. As to conditions: Homo sapiens.
The subject of test [16] is HEK-293T. As to the kind of experiment: Activation of ESD K213A mutant (unknown origin) expressed in HEK293T cells transfected with p-EGFP assessed as induction of protein mono ubiquitination at 0.1 to 1 uM measured up to 24 hrs by immunoblotting analysis. To be noted: Homo sapiens. The class given is cell-based.
The test system of test [17] is HeLa. As to the kind of experiment: Activation of ESD K180A mutant (unknown origin) expressed in human HeLa cells transfected with p-EGFP assessed as compound co-localization with protein by fluorescence microscopic analysis. The class given is cell-based.
The subject of test [18] is HeLa. As to the kind of experiment: Activation of ESD K213A mutant (unknown origin) expressed in human HeLa cells transfected with p-EGFP assessed as protein co-localization by fluorescence microscopic analysis. The class given is cell-based.
Test [19] relates to HeLa. As to the kind of experiment: Activation of ESD K180A mutant (unknown origin) expressed in human HeLa cells transfected with p-EGFP at 0.1 uM. The class given is cell-based.
In test [20] the test system is HeLa. As to the kind of experiment: Activation of ESD K213A mutant (unknown origin) expressed in human HeLa cells transfected with p-EGFP at 0.1 uM. The class given is cell-based.
For test [21], the target named is T1, S-formylglutathione hydrolase (Homo sapiens). As to the kind of experiment: Inhibition of IgG binding to human ESD expressed in HEK293T cells. The class given is cell-based. As to conditions: HEK-293T.
The test system of test [22] is HEK-293T. As to the kind of experiment: Inhibition of IgG binding to ESD K180A mutant (unknown origin) expressed in HEK293T cells. The class given is cell-based. As to conditions: Homo sapiens.
The subject of test [23] is HEK-293T. As to the kind of experiment: Inhibition of IgG binding to ESD K213A mutant (unknown origin) expressed in HEK293T cells. The class given is cell-based. As to conditions: Homo sapiens.

`Oc1ccc(Cl)cc1C1=NN(c2ccccn2)C(c2ccccc2)C1` (stereo not drawn): the outcome in test [1], in [2], in test [3], in test [4], in [9] and in test [12] was Active. In addition, the result in [13] and in test [14] was Active. Besides, the inhibition entry in test [5] and in [21] was “Dose-dependent effect” throughout. Moreover, the Ka in test [6] worked out at 5.2 ×10⁵ /M/s. For the same compound, the Kd worked out at 4.4 ×10⁻⁴ /s in test [7] and 0.8 nM in test [8]. The outcome with HEK-293T [10], in the test on HEK-293T [11], in the test with HEK-293T [15], in the test with HEK-293T [16], in the test with HeLa [17] and in the test on HeLa [18] was inactive. For the same compound, the result with HeLa [19] and in the test with HeLa [20] was inactive. The inhibition entry in the test with HEK-293T [22] and in the test on HEK-293T [23] was “inactive” each time.
